For 23 molecules, IC50 results are on record in patent US12264156B2, “Compounds and pharmaceutical compositions thereof for the treatment of diseases” (GALAPAGOS NV, priority 2018, dated 2025).

pIC50: −log10 of the molar value. Bounds are passed on as bounds.

Common to all, as to type: biochemical
Common to all, as to details: ADP-Glo SIK kinase assay

One test concerns the target T1, SIK1 (Homo sapiens, UniProt P57059).
T1 construct: purchased Carna Biosciences 02-131
Put plainly: ADP-Glo kinase assay, SIK1. In short, it runs like this:
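Wells with 1% DMSO or 10 μM staurosporine (final) define the control window. The kinase reaction with substrate and ATP runs 120 min at RT, followed by ADP-Glo detection: ATP depletion (40 min) and ADP-derived luminescence (30 min).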
On the technique in general: ADP-Glo turns the ADP formed in a reaction into a luminescent signal.

In a further test the target is T2, SIK2 (Homo sapiens, UniProt Q9H0K1).
T2 construct: purchased ThermoFisher Scientific PV4792
Put plainly: ADP-Glo kinase assay, SIK2. The gist of the method: (§1)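 ADP-Glo, RT throughout. Enz/substrate + ATP, 120 min; ADP-Glo reagent 40 min (ATP depletion); detection reagent 30 min; luminescence read. Neg ctrl 1% DMSO, pos ctrl 10 μM staurosporine, final concs.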

The target of a further test is T3, SIK3 (Homo sapiens, UniProt Q9Y2K2).
T3 construct: purchased SignalChem S12-11G-100
Put plainly: ADP-Glo kinase assay, SIK3. In short, it runs like this:
as §1

T2 sequence (Q9H0K1 whole entry): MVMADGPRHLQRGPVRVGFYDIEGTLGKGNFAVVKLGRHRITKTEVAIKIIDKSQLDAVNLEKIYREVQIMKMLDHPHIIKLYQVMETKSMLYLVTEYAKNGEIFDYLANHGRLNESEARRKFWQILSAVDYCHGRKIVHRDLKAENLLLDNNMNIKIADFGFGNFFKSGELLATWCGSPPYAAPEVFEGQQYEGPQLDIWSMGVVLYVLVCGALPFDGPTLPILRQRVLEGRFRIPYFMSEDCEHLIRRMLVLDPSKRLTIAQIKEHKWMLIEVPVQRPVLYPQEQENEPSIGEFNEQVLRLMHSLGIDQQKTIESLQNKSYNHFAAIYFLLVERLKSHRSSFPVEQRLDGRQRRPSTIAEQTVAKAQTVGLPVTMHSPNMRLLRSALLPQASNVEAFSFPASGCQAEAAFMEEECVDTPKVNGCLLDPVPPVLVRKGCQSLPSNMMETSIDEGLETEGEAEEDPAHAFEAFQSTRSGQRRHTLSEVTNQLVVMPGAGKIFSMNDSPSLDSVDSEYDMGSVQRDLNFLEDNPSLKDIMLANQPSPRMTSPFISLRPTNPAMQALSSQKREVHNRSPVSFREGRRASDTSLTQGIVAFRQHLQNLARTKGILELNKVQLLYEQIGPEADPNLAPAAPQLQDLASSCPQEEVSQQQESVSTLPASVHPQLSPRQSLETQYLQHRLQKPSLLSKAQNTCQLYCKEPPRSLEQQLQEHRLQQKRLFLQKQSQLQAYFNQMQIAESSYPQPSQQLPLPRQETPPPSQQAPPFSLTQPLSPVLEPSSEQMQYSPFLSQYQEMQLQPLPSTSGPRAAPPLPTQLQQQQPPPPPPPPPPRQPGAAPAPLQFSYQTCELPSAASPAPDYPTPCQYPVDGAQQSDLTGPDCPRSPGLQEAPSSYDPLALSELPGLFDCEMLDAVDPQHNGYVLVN
T1 sequence (P57059 whole entry): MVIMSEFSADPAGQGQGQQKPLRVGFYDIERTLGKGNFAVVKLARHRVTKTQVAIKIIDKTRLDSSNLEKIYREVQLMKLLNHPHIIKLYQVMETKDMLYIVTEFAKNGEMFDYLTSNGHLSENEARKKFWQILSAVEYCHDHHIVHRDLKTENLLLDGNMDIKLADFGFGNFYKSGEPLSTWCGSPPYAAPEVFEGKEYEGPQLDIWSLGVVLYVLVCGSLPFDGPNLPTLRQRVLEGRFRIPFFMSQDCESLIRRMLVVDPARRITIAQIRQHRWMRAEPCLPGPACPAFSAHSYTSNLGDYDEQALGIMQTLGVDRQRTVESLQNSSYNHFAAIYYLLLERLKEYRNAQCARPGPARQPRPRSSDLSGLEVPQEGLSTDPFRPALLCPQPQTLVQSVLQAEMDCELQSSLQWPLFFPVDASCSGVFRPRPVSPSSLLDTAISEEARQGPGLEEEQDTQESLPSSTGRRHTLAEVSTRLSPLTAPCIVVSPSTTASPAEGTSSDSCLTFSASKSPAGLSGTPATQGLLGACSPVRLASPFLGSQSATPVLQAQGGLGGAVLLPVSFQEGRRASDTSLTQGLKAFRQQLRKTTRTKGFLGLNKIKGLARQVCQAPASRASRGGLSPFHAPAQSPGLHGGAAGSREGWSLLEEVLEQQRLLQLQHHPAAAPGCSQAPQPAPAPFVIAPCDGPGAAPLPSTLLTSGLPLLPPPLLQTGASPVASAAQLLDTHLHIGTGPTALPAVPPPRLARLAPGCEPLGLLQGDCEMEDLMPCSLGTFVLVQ
T3 sequence (Q9Y2K2 whole entry): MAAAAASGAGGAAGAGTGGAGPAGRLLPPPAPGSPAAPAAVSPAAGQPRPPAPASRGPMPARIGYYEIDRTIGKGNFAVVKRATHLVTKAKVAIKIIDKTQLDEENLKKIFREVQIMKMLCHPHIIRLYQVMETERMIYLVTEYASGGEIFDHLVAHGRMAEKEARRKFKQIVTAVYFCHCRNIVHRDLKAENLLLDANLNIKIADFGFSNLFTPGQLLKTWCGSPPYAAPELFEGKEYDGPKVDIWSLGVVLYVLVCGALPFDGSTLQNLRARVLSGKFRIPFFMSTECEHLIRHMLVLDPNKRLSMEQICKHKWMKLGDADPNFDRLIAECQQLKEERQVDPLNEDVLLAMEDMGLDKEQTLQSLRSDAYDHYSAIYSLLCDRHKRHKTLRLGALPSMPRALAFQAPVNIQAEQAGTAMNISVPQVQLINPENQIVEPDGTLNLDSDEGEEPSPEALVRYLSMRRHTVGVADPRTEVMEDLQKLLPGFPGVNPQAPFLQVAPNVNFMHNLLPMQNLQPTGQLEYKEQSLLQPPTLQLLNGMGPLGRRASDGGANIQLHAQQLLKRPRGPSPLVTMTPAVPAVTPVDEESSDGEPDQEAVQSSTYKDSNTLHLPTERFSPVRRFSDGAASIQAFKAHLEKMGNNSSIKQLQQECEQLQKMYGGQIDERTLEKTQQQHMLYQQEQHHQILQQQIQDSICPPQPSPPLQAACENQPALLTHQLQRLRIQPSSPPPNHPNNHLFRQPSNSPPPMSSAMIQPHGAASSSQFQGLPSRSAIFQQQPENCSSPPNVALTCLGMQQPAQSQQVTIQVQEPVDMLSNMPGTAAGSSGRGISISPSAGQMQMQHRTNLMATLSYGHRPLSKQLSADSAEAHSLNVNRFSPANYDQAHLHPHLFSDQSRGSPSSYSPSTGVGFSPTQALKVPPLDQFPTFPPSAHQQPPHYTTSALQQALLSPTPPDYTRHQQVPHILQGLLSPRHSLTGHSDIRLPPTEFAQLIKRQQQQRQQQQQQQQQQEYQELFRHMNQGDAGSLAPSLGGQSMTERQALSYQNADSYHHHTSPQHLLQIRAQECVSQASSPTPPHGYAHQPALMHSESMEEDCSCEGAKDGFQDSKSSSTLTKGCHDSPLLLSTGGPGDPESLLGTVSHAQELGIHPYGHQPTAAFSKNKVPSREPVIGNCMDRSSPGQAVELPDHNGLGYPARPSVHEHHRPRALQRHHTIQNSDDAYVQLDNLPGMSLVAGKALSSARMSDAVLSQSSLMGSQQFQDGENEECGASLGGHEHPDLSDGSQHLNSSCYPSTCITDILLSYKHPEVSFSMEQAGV

For the molecule `COc1cc(-c2cnc3cc(OCCN4CCCC(F)C4)ccn23)cc(OC(F)F)c1C(=O)NC1CC1` (stereo not drawn) [compound 212, N-cyclopropyl-2-(difluoromethoxy)-4-[7-[2-(3-fluoro-1-piperidyl)ethoxy]imidazo[1,2-a]pyridin-3-yl]-6-methoxy-benzamide], the pIC50 (usually the negative decadic logarithm of the IC50, by convention in mol/L) is 7.00 to 8.00 against SIK1, 8.00 to 11.00 at SIK2 and 8.00 to 11.00 against SIK3.
For the molecule `COc1cc(-c2cnc3cc(OCCN4CCOC(C#N)C4)ccn23)cc(OC(F)F)c1C(=O)NC1CC1` (stereo not drawn) [compound 213, 4-[7-[2-(2-cyanomorpholin-4-yl)ethoxy]imidazo[1,2-a]pyridin-3-yl]-N-cyclopropyl-2-(difluoromethoxy)-6-methoxy-benzamide], the figures for the pIC50 against SIK1, against SIK2 and on SIK3 were 7.00 to 8.00, 8.00 to 11.00 and 8.00 to 11.00, respectively.
Regarding `COc1cc(-c2cnc3cc(OCCN4CCOC(C)C4)ccn23)cc(OC(F)F)c1C(=O)NC1CC1` (stereo not drawn) [compound 214, N-cyclopropyl-2-(difluoromethoxy)-6-methoxy-4-[7-[2-(2-methylmorpholin-4-yl)ethoxy]imidazo[1,2-a]pyridin-3-yl] benzamide], the pIC50 was 7.00 to 8.00 against SIK1, 8.00 to 11.00 against SIK2 and 8.00 to 11.00 at SIK3.
Consider `COc1cc(-c2cnc3cc(OCCN(C)CC#N)ccn23)cc(OC(F)F)c1C(=O)NC1CC1` [compound 215, 4-[7-[2-[cyanomethyl(methyl)amino]ethoxy]imidazo[1,2-a]pyridin-3-yl]-N-cyclopropyl-2-(difluoromethoxy)-6-methoxy-benzamide], for which the results for the pIC50 against SIK1, on SIK2 and against SIK3 were 7.00 to 8.00, 8.00 to 11.00 and 8.00 to 11.00, respectively.
For `COc1cc(-c2cnc3cc(OCCN4CCCC(C#N)C4)ccn23)cc(OC(F)F)c1C(=O)NC1CC1` (stereo not drawn) [compound 216, 4-[7-[2-(3-cyano-1-piperidyl)ethoxy]imidazo [1,2-a]pyridin-3-yl]-N-cyclopropyl-2-(difluoromethoxy)-6-methoxy-benzamide], the pIC50 against SIK1, against SIK2 and against SIK3 was 8.00 to 11.00 in each case.
Take `COc1cc(-c2cnc3cc(OCCN4CCOCC4)ccn23)cc(C)c1C(=O)NC1CC1` [compound 222, N-cyclopropyl-2-methoxy-6-methyl-4-[7-(2-morpholinoethoxy)imidazo[1,2-a]pyridin-3-yl]benzamide]: the pIC50 at SIK1 was under 6.30; against SIK2, 6.30 to 7.00; against SIK3 it was 7.00 to 8.00.
For `COc1cc(-c2cnc3cc(OCCN(C)c4ccncc4)ccn23)cc(OC(F)F)c1C(=O)NC1CC1` [compound 223, N-cyclopropyl-2-(difluoromethoxy)-6-methoxy-4-[7-[2-[methyl(4-pyridyl)amino]ethoxy]imidazo[1,2-a]pyridin-3-yl]benzamide] the same measures were 8.00 to 11.00, 8.00 to 11.00 and 8.00 to 11.00.
Regarding `COc1cc(-c2cnc3cc(OCc4cccnn4)ccn23)cc(OC(F)F)c1C(=O)NC1CC1` [compound 226, N-cyclopropyl-2-(difluoromethoxy)-6-methoxy-4-[7-(pyridazin-3-ylmethoxy)imidazo[1,2-a]pyridin-3-yl]benzamide], the pIC50 against SIK1 was 7.00 to 8.00; at SIK2, 8.00 to 11.00; against SIK3, 8.00 to 11.00.
Turning to `COc1cc(-c2cnc3cc(OCC4CN(C)C(=O)O4)ccn23)cc(OC(F)F)c1C(=O)NC1CC1` (stereo not drawn) [compound 228, N-cyclopropyl-2-(difluoromethoxy)-6-methoxy-4-[7-[(3-methyl-2-oxo-oxazolidin-5-yl)methoxy]imidazo[1,2-a]pyridin-3-yl]benzamide], the pIC50 against SIK1, against SIK2 and against SIK3 was 8.00 to 11.00 each time.
In the case of `COc1cc(-c2cnc3cc(OCc4nc(C)no4)ccn23)cc(OC(F)F)c1C(=O)NC1CC1` [compound 229, N-cyclopropyl-2-(difluoromethoxy)-6-methoxy-4-[7-[(3-methyl-1,2,4-oxadiazol-5-yl)methoxy]imidazo[1,2-a]pyridin-3-yl]benzamide], the values for the pIC50 against SIK1, at SIK2 and on SIK3 were 7.00 to 8.00, 8.00 to 11.00 and 8.00 to 11.00, respectively.
Regarding `COc1cc(-c2cnc3cc(OCc4noc(C)n4)ccn23)cc(OC(F)F)c1C(=O)NC1CC1` [compound 231, N-cyclopropyl-2-(difluoromethoxy)-6-methoxy-4-[7-[(5-methyl-1,2,4-oxadiazol-3-yl)methoxy]imidazo[1,2-a]pyridin-3-yl]benzamide], the pIC50 against SIK1 is 7.00 to 8.00; against SIK2 it was 8.00 to 11.00; on SIK3, 8.00 to 11.00.
`COc1cc(-c2cnc3cc(OCCN4CCOCC4C)ccn23)cc(OC(F)F)c1C(=O)NC1CC1` (stereo not drawn) [compound 232, N-cyclopropyl-2-(difluoromethoxy)-6-methoxy-4-[7-[2-(3-methylmorpholin-4-yl)ethoxy]imidazo [1,2-a]pyridin-3-yl]benzamide]: the pIC50 against SIK1 is 7.00 to 8.00; on SIK2, 8.00 to 11.00; against SIK3, 8.00 to 11.00.
As for `COc1cc(-c2cnc3cc(OCCN(CC(F)F)C4CC4)ccn23)cc(OC(F)F)c1C(=O)NC1CC1` [compound 235, N-cyclopropyl-4-[7-[2-[cyclopropyl (2,2-difluoroethyl)amino]ethoxy]imidazo [1,2-a]pyridin-3-yl]-2-(difluoromethoxy)-6-methoxy-benzamide], the pIC50 against SIK1, against SIK2 and at SIK3 was 8.00 to 11.00 throughout.
On to `COc1cc(-c2cnc3cc(OCCN(C)CC(F)F)ccn23)cc(OC(F)F)c1C(=O)NC1CC1` [compound 236, N-cyclopropyl-4-[7-[2-[2,2-difluoroethyl(methyl)amino]ethoxy]imidazo[1,2-a]pyridin-3-yl]-2-(difluoromethoxy)-6-methoxy-benzamide], for which the pIC50 at SIK1 was 7.00 to 8.00; at SIK2, 8.00 to 11.00; against SIK3, 8.00 to 11.00.
Consider `COCCN(CCOc1ccn2c(-c3cc(OC)c(C(=O)NC4CC4)c(OC(F)F)c3)cnc2c1)CC(F)F` [compound 237, N-cyclopropyl-4-[7-[2-[2,2-difluoroethyl(2-methoxyethyl)amino]ethoxy]imidazo[1,2-a]pyridin-3-yl]-2-(difluoromethoxy)-6-methoxy-benzamide], for which the results for the pIC50 at SIK1, against SIK2 and against SIK3 were 7.00 to 8.00, 8.00 to 11.00 and 8.00 to 11.00, respectively.
Take `COc1cc(-c2cnc3cc(OCCN(C)c4ncccn4)ccn23)cc(OC(F)F)c1C(=O)NC1CC1` [compound 238, N-cyclopropyl-2-(difluoromethoxy)-6-methoxy-4-[7-[2-[methyl(pyrimidin-2-yl)amino]ethoxy]imidazo [1,2-a]pyridin-3-yl]benzamide]: the pIC50 at SIK1, against SIK2 and at SIK3 was 8.00 to 11.00 each time.
As to `COc1cc(-c2cnc3cc(OCCN(C)c4ccncn4)ccn23)cc(OC(F)F)c1C(=O)NC1CC1` [compound 239, N-cyclopropyl-2-(difluoromethoxy)-6-methoxy-4-[7-[2-[methyl(pyrimidin-4-yl)amino]ethoxy]imidazo [1,2-a]pyridin-3-yl]benzamide], the pIC50 at SIK1, against SIK2 and against SIK3 was 8.00 to 11.00 in each case.
For `COc1cc(-c2cnc3cc(OCCN(C)c4ccnnc4)ccn23)cc(OC(F)F)c1C(=O)NC1CC1` [compound 240, N-cyclopropyl-2-(difluoromethoxy)-6-methoxy-4-[7-[2-[methyl(pyridazin-4-yl)amino]ethoxy]imidazo [1,2-a]pyridin-3-yl]benzamide], the pIC50 at SIK1, against SIK2 and at SIK3 was 8.00 to 11.00 each time.
For `Cc1cc(-c2cnc3cc(OCCN4CCOCC4)ccn23)cc(OC(F)F)c1C(=O)NC1CC1` [compound 241, N-cyclopropyl-2-(difluoromethoxy)-6-methyl-4-[7-(2-morpholinoethoxy)imidazo[1,2-a]pyridin-3-yl]benzamide], the negative logarithm of the IC50 (pIC50) was 6.30 to 7.00 against SIK1, 7.00 to 8.00 against SIK2 and 8.00 to 11.00 against SIK3.
For `Cc1cc(-c2cnc3cc(OCCN4CCOCC4)ccn23)cc(OC(F)F)c1C(=O)NCC(F)(F)F` [compound 243, 2-(difluoromethoxy)-6-methyl-4-[7-(2-morpholinoethoxy)imidazo[1,2-a]pyridin-3-yl]-N-(2,2,2-trifluoroethyl)benzamide], the pIC50 against SIK1 was under 6.30; at SIK2 it was 7.00 to 8.00; on SIK3 it was 7.00 to 8.00.
For `COc1cc(-c2cnc3cc(OCCN4C5CCC4COC5)ccn23)cc2c1C(=O)N(CC(F)(F)F)CC2` [compound 246, 8-methoxy-6-[7-[2-(3-oxa-8-azabicyclo[3.2.1]octan-8-yl)ethoxy]imidazo[1,2-a]pyridin-3-yl]-2-(2,2,2-trifluoroethyl)-3,4-dihydroisoquinolin-1-one], the results for the pIC50 on SIK1, at SIK2 and against SIK3 were 6.30 to 7.00, 8.00 to 11.00 and 7.00 to 8.00, respectively.
For `COc1cc(-c2cnc3cc(OCC4(C)CN(C(=O)OC(C)(C)C)C4)ccn23)cc2c1C(=O)N(CC(F)(F)F)CC2` [compound 249, tert-butyl 3-[[3-[8-methoxy-1-oxo-2-(2,2,2-trifluoroethyl)-3,4-dihydroisoquinolin-6-yl]imidazo[1,2-a]pyridin-7-yl]oxymethyl]-3-methyl-azetidine-1-carboxylate] the same measures were 6.30 to 7.00, 7.00 to 8.00 and 8.00 to 11.00.
In the case of `COc1cc(-c2cnc3cc(OCC4(F)CNC4)ccn23)cc2c1C(=O)N(CC(F)(F)F)CC2` [compound 250, 6-[7-[(3-fluoroazetidin-3-yl)methoxy]imidazo[1,2-a]pyridin-3-yl]-8-methoxy-2-(2,2,2-trifluoroethyl)-3,4-dihydro isoquinolin-1-one], the figures for the negative logarithm of the IC50 (pIC50) on SIK1, against SIK2 and against SIK3 were 6.30 to 7.00, 8.00 to 11.00 and 8.00 to 11.00, respectively.
